These results are taken from patent US5250517A (Hoffmann-La Roche Inc., priority 1987, dated 1993).

Where a SMILES comes first, the peptide text is derived from it. [ ]: non-standard residue; d: D form. The star is where a group is joined. X1 = C=C[C@@H](CC(O)[C@H](CC1CCCCC1)N*)C(C)C; Boc = CC(C)(C)OC(=O)*

The target in this assay is T1, human renin (Homo sapiens, UniProt P00797).
T1 sequence (P00797 67-406): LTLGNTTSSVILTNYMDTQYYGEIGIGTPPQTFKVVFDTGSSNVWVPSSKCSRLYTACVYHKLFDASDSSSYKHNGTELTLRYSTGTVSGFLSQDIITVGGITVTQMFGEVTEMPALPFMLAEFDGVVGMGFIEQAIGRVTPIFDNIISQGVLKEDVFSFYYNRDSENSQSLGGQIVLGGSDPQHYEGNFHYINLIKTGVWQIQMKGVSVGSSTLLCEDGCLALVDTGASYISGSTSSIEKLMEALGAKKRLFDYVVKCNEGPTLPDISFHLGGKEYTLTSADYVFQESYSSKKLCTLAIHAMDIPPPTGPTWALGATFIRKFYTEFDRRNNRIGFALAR
Kind of assay: In Vitro Test With Pure Human Renin. Format: biochemical. Particulars: human tetradecapeptide renin substrate (hTD), pH 7.4, 3 hours at 37° C. vs 4° C., angiotensin I by RIA. How it is done: In Vitro Test With Pure Human Renin
The test is carried out in Eppendorf test tubes. The incubation mixture consists of (1) 100 μl of human renin in buffer A (0.1M sodium phosphate solution, pH 7.4, containing 0.1% bovine serum albumin, 0.1% sodium azide and 1 mM ethylenediaminetetraacetic acid), sufficient for a renin activity of 2-3 ng of angiotensin I/ml/hr.; (2) 145 μl of buffer A; (3) 30 μl of 10 μM human tetradecapeptide renin substrate (hTD) in 10 mM hydrochloric acid; (4) 15 μl of dimethyl sulfoxide with or without inhibitor and (5) 10 μl of a 0.03 molar solution of hydroxyquinoline sulfate in water.
The samples are incubated for 3 hours at 37° C. or 4° C. in triplicate. 2×100 μl samples per experimental test tube are used in order to measure the production of angiotensin I via RIA (standard radioimmunoassay; clinical assay solid phase kit). […] The production of angiotensin I in determined by the difference between the experiment at 37° C. and that at 4° C.
The following controls are carried out:
(a) Incubation of hTD samples without renin and without inhibitor at 37° C. and 4° C. The difference between these two values gives the base value of angiotensin I production.
(b) Incubation of hTD samples with renin, but without inhibitor at 37° C. and 4° C. The difference between these values gives the maximal value of angiotensin I production.
In each sample, the base value of the angiotensin I production is subtracted from the angiotensin I production which is determined. The difference between the maximal value and the base value gives the value of the maximal substrate hydrolysis (=100%) by renin.
The IC50 values are determined from a linear regression curve from a logit-log plot.
In turn, `C=C[C@@H](C[C@H](O)[C@H](CC1CCCCC1)NC(=O)[C@H](Cc1c[nH]cn1)NC(=O)[C@@H](CC(=O)N(C)C)Cc1ccccc1)C(C)C` [O, (S)-N-[(1S,2S,4S)-1-(cyclohexylmethyl)-2-hydroxy-4-isopropyl-5-hexenyl]-α-[(R)-α-[(dimethylcarbamoyl)-methyl]hydrocinnamamido]imidazole-4-propionamide] returned an IC50 of 12 nM. This counts as double-digit nanomolar.
`C=C[C@@H](C[C@H](O)[C@H](CC1CCCCC1)NC(=O)[C@H](Cc1c[nH]cn1)NC(=O)C(CC(=O)C1CCCC1)Cc1ccccc1)C(C)C` (mixture of isomers) [P, (S)-N-[(1S,2S,4S)-1-(cyclohexylmethyl)-2-hydroxy-4-isopropyl-5-hexenyl]-α-[(RS)-α-[(cyclopentyl-carbonyl)methyl]hydrocinnamamido]imidazole-4-propionamide] had an IC50 of 46 nM. This IC50 lies about 3.8-fold higher than the previous one.
The compound `CC[C@@H](C[C@H](O)[C@H](CC1CCCCC1)NC(=O)[C@H](Cc1c[nH]cn1)NC(=O)[C@H](Cc1ccccc1)NC(=O)OC(C)(C)C)C(C)C` [E, t-butyl [(S)-α-[[(S)-1-[[(1S,2S,4S)-1-cyclohexylmethyl-2-hydroxy-4-isopropylhexyl]carbamoyl]-2-imidazol-4-ylethyl]carbamoyl]phenethyl]carbamate] displayed an IC50 of 7.9 nM.
As to `C=C[C@@H](C[C@H](O)[C@H](CC1CCCCC1)NC(=O)[C@H](Cc1c[nH]cn1)NC(=O)[C@@H](CC(N)=O)Cc1ccccc1)C(C)C` [N, (S)-α-[(R)-α-(carbamoylmethyl)hydrocinnamamido]-N-[(1S,2S,4S)-1-(cyclohexylmethyl)-2-hydroxy-4-isopropyl-5-hexenyl]imidazole-4-propionamide], the IC50 is 140 nM.
Regarding `C=C[C@@H](C[C@H](O)[C@H](CC1CCCCC1)NC(=O)[C@H](Cc1c[nH]cn1)NC(=O)[C@@H](CC(=O)C(C)(C)C)Cc1ccccc1)C(C)C` [L], the IC50 amounted to 7 nM.
`C=C[C@@H](C[C@H](O)[C@H](CC1CCCCC1)NC(=O)[C@H](Cc1c[nH]cn1)NC(=O)[C@H](Cc1ccccc1)NC(=O)OC(C)(C)C)C(C)C` [D, t-butyl [(S)-α-[[(S)-1-[[(1S,2S,4S)-1-cyclohexylmethyl-2-hydroxy-4-isopropyl-5-hexenyl]carbamoyl]-2-imidazol-4-ylethyl]carbamoyl]phenethyl]carbamate] returned an IC50 of 7.5 nM.
In turn, `CC[C@@H](C[C@H](O)[C@H](CC1CCCCC1)NC(=O)[C@H](Cc1c[nH]cn1)NC(=O)C(CC(=O)N1CCOCC1)Cc1cccc2ccccc12)C(C)C` (some centres unmarked) [H] gave an IC50 of 4.1 nM.
The compound `CC[C@@H](C[C@H](O)[C@H](CC1CCCCC1)NC(=O)[C@H](Cc1c[nH]cn1)NC(=O)C(CC(=O)C1CCCC1)Cc1ccccc1)C(C)C` (mixture of isomers) [Q] displayed an IC50 of 68 nM.
Compound `C=C[C@@H](C[C@H](O)[C@H](CC1CCCCC1)NC(=O)[C@H](Cc1c[nH]cn1)NC(=O)C(CC(=O)NCCN(CC(=O)OC(C)(C)C)C(=O)OC(C)(C)C)Cc1ccccc1)C(C)C` (mixture of isomers) [Compound I, t-butyloxycarbonyl [2-[(R and S)-3-[[(S)-1-[[(1S,2S,4S)-1-(cyclohexylmethyl)-2-hydroxy-4-isopropyl-5-hexenyl]carbamoyl]-2-imidazol-4-ylethyl]-carbamoyl]-4-phenylbutyramido]ethyl]glycine t-butyl ester] displayed an IC50 of 46 nM.
`C=C[C@@H](C[C@H](O)[C@H](CC1CCCCC1)NC(=O)[C@H](Cc1c[nH]cn1)NC(=O)CC(C)C)C(C)C` [C] showed an IC50 of 9 nM. This IC50 is about 5.1-fold lower than that of the compound before.
As for `C=C[C@@H](C[C@H](O)[C@H](CC1CCCCC1)NC(=O)[C@H](Cc1c[nH]cn1)NC(=O)[C@H](Cc1ccccc1)NC(=O)[C@H]1CCCN1C(=O)OC(C)(C)C)C(C)C` [B, (2S,3S,5S)-2-(Boc--D--Pro--Phe--His--NH)-1-cyclohexyl-5-isopropyl-6-hepten-3-ol], the IC50 was determined as 0.3 nM. Against the preceding compound, the IC50 is about 30-fold lower.
Turning to `C=C[C@@H](C[C@H](O)[C@H](CC1CCCCC1)NC(=O)[C@H](Cc1c[nH]cn1)NC(=O)[C@@H](CC(=O)NC(C)(CO)CO)Cc1ccccc1)C(C)C` [K, (S)-N-[(1S,2S,4S)-1-(cyclohexylmethyl)-2-hydroxy-4-isopropyl-5-hexenyl]-α-[(R)-α-[[[2-hydroxy-1-(hydroxymethyl)-1-methylethyl]carbamoyl]methyl]hydrocinnamamido]imidazole-4-propionamide], the IC50 is 17 nM.
`CC[C@@H](C[C@H](O)[C@H](CC1CCCCC1)NC(=O)[C@H](Cc1c[nH]cn1)NC(=O)[C@@H](CC(=O)[C@@H]1CCCN1C(=O)OC(C)(C)C)Cc1ccccc1)C(C)C` [F, t-butyl (S)-2-[[(R)-α-[[(S)-1-[[(1S,2S,4S)-1-(cyclohexylmethyl)-2-hydroxy-4-isopropylhexyl]carbamoyl]-2-imidazol-4-ylethyl]carbamoyl]phenethyl]acetyl]-1-pyrrolidinecarboxylate] yielded an IC50 of 4 nM.
Compound `C=C[C@@H](CC(O)[C@H](CC1CCCCC1)NC(=O)[C@H](Cc1c[nH]cn1)NC(=O)[C@H](Cc1ccccc1)NC(=O)[C@@H]1CCCN1C(=O)[C@H]1CCCN1C(=O)OC(C)(C)C)C(C)C` (stereo partly drawn) [R, (2S,5S)-2-(Boc--D--Pro--Pro--Phe--His--NH)-1-cyclohexyl-5-isopropyl-6-hepten-3-ol] (Boc-[dP]PFH-X1) gave an IC50 of 1.7 nM.
For `CC[C@@H](C[C@H](O)[C@H](CC1CCCCC1)NC(=O)[C@H](Cc1c[nH]cn1)NC(=O)[C@H](Cc1ccccc1)NC(=O)[C@H]1CCCN1C(=O)OC(C)(C)C)C(C)C` [A], the IC50 turned out to be 3.5 nM.
As for `CC[C@@H](C[C@H](O)[C@H](CC1CCCCC1)NC(=O)[C@H](Cc1c[nH]cn1)NC(=O)[C@@H](CC(=O)NC(C)(CO)CO)Cc1ccccc1)C(C)C` [G, (S)-N-[(1S,2S,4S)-1-(cyclohexylmethyl)-2-hydroxy-4-isopropylhexyl]-α-[[[[(R)-α-2-hydroxy-1-(hydroxymethyl)-1-methylethyl]carbamoyl]methyl]hydrocinnamamido]imidazole-4-propionamide], the midpoint of inhibition, the IC50, lay at 15 nM.
`C=C[C@@H](C[C@H](O)[C@H](CC1CCCCC1)NC(=O)[C@H](Cc1c[nH]cn1)NC(=O)[C@H](Cc1ccccc1)NC(=O)N1CCOCC1)C(C)C` [M] returned an IC50 of 21 nM.

The IC50 is the concentration that inhibits the measured activity by half.
